Earlier results on six compounds are cited in patent US12029808B2, “Kit and method for dyeing keratinous material by means of aminosilicone and a chromophoric compound” (Henkel AG & Co. KGaA, priority 2019, dated 2024).

For the data set the following is noted: 25° C.
For the compound `CCN(Cc1cccc(S(=O)(=O)[O-])c1)c1ccc(C(=C2C=CC(=[N+](CC)Cc3cccc(S(=O)(=O)[O-])c3)C=C2)c2ccccc2S(=O)(=O)[O-])cc1.[Na+].[Na+]` [Acid Blue 9], the solubility in water result is given as “more than 20 wt. %”.

`O=S(=O)([O-])c1ccc(N=Nc2c(O)ccc3ccccc23)cc1.[Na+]` [Acid Orange 7, sodium salt of 4-[(2-hydroxy-1-naphthyl)azo]benzene sulphonate]: the solubility in water entry is “more than 7 g/L”.

As for `Nc1cc(S(=O)(=O)[O-])cc2cc(S(=O)(=O)[O-])c(N=Nc3ccccc3)c(O)c12.[Na+].[Na+]` [Acid Red 33, diantrium salt of 5-amino-4-hydroxy-3-(phenylazo)-naphthalene-2,7-disulphonate], the solubility in water is 2.5 mg/mL.

Regarding `O=C([O-])c1c(Cl)c(Cl)c(Cl)c(Cl)c1-c1c2c(Br)cc(=O)c(Br)c-2oc2c(Br)c(O)cc(Br)c12.O=C([O-])c1c(Cl)c(Cl)c(Cl)c(Cl)c1-c1c2c(Br)cc(=O)c(Br)c-2oc2c(Br)c(O)cc(Br)c12.[Na+].[Na+]` [Acid Red 92, disodium salt of 3,4,5,6-tetrachloro-2-(1,4,5,8-tetrabromo-6-hydroxy-3-oxoxanthen-9-yl)benzoic acid], the solubility in water result is “greater than 10 g/L”.

Consider `O=C([O-])C1=NN(c2ccc(S(=O)(=O)[O-])cc2)C(=O)C1N=Nc1ccc(S(=O)(=O)[O-])cc1.[Na+].[Na+].[Na+]` (stereo not drawn) [Acid Yellow 23, trisodium salt of 4,5-dihydro-5-oxo-1-(4-sulfophenyl)-4-((4-sulfophenyl)azo)-1H-pyrazole-3-carboxylic acid], for which the “solubility in water (in words)” value is “highly soluble in water”.

Consider “mixture of the sodium salts of mono- and sisulfonic acids of 2-(2-quinolyl)-1H-indene-1,3(2H)-dione [Acid Yellow 3]”, for which the solubility in water was 20 mg/mL.
